melting point | SMILES
290.2 to 291.6 °C | CNC(=O)Cn1cnc2c(-c3ccco3)nc(N)nc21 [Example 89, 2-Amino-6-(2-furyl)-N-methyl-9H-purine-9-acetamide]
310 to 310.3 °C | Nc1nc(-c2cc3ccccc3o2)c2nc[nH]c2n1 [Example 120, 6-(Benzofuran-2-yl)-1H-purine-2-amine]
175.4 to 176.1 °C | CC(C)CC(=O)n1cnc2c(-c3ccco3)nc(N)nc21 [Example 33, 6-(2-Furyl)-9-(3-methylbutyryl)-9H-purine-2-amine]
> 280 °C (dec.) | CCNC(=O)n1cnc2c(-c3ccco3)nc(N)nc21 [Example 24, 2-Amino-N-ethyl-6-(2-furyl)-9H-purine-9-carboxamide]
342 °C (dec.) | Cc1nc(-c2ccco2)c2nc[nH]c2n1 [Example 153, 6.(2-Furyl)-2-methyl-1H-purine]
300 °C (dec.) | Nc1nc(-c2cncs2)c2nc[nH]c2n1 [Example 137, 6-(5-Thiazolyl)-1H-purine-2-amine]
> 200 °C (dec.) | Cc1nc(-c2nc(N)nc3[nH]cnc23)no1 [Example 90, 6-(5-Methyl-[1,2,4]-oxadiazol-3-yl)-1H-purine-2-amine]
> 300 °C (dec.) | CC(C)NC(=O)n1cnc2c(-c3ccco3)nc(N)nc21 [Example 30, 2-Amino-6-(2-furyl)N-isopropyl-9H-purine-9-carboxamide]
305.4 to 306.8 °C | Nc1nc(-c2ccco2)c2ncn(Cc3cccc4[nH]ccc34)c2n1 [Example 271, 6-(2-Furyl)-9-(4-indolylmethyl)-9H-purine-2-amine]
> 240 °C (dec.) | Cn1cccc1-c1nc(N)nc2[nH]cnc12 [Example 133, 6-(1-Methyl-1H-pyrrol-2-yl)-1H-purine-2-amine]
190 °C (dec.) | NCCn1cnc2c(-c3ccco3)nc(N)nc21 [Example 257, 9-(2-Aminoethyl)-6-(2-furyl)-9H-purine-2-amine]
160 °C (dec.) | Cc1ccc(-c2nc(N)nc3c2ncn3C(=O)NCc2ccccc2)o1 [Example 204, 2-Amino-N-benzyl-6-(5-methyl-2-furyl)-9H-purine-9-carboxamide]
> 190 °C (dec.) | Cc1ccc(-c2nc(N)nc3[nH]cnc23)o1 [Example 195, 6-(5-Methyl-2-furyl)-1H-purine-2-amine]

Continued, compound first:

SMILES | melting point
Nc1nc(-c2ccco2)c2ncn(CC(=O)Nc3ccccc3)c2n1 [Example 85, 2-Amino-6-(2-furyl)-N-phenyl-9H-purine-9-acetamide] | 289.1 to 289.7 °C
Nc1nc(-c2ccco2)c2ncn(Cc3ccccc3NS(=O)(=O)c3cccs3)c2n1 [Example 238, 6-(2-Furyl)-9-(2-(2-thienylsulphonylamino)benzyl)-9H-purine-2-amine] | 265.6 to 266 °C
Nc1nc(-c2ccn[nH]2)c2ncn(Cc3ccccc3F)c2n1 [Example 262, 9-(2-Fluorobenzyl)-6-(1H-pyrazol-3-yl)-9H-purine-2-amine] | 257 to 259 °C
Nc1nc(-c2ccco2)c2ncn(C(=O)Oc3ccccc3)c2n1 [Example 22, Phenyl 2-amino-6-(2-furyl)-9H-purine-9-carboxylate] | > 300 °C (dec.)
CN(C)C(=O)c1ccc(Cn2cnc3c(-c4ccco4)nc(N)nc32)cc1 [Example 233, 4-(2-Amino-6-(2-furyl)-9H-purine-9-ylmethyl)-N,N-dimethylbenzamide] | 223.1 to 226.9 °C
Cc1ccc(Cn2cnc3c(-c4ccco4)nc(C#N)nc32)cc1 [Example 173, 6-(2-Furyl)-9-(4-methylbenzyl)-9H-purine-2-carbonitrile] | 196.5 °C (dec.)
COC(=O)c1ccc(Cn2cnc3c(-c4ccco4)nc(N)nc32)cc1 [Example 215, Methyl 4-(2-amino-6-(2-furyl)-9H-purine-9-ylmethyl)benzoate] | 219.5 to 219.7 °C
CC(C)(C)c1ccc(S(=O)(=O)n2cnc3c(-c4ccco4)nc(N)nc32)cc1 [Example 27, 9-(4-tert-Butylphenylsulphonyl)-6-(2-furyl)-9H-purine-2-amine] | 238.7 to 239.2 °C
CN(C)c1nc(-c2ccco2)c2ncn(COCC[Si](C)(C)C)c2n1 | 81.5 to 82.2 °C
Cc1ccc(S(=O)(=O)n2cnc3c(-c4ccco4)nc(N(C)C)nc32)cc1 [Example 56, N,N-Dimethyl-6-(2-furyl)-9-(4-methylphenylsulphonyl)-9H-purine-2-amine] | 212.6 to 213 °C
CN(Cc1ccccc1)C(=O)Cn1cnc2c(-c3ccco3)nc(N)nc21 [Example 145, 2-Amino-N-benzyl-6-(2-furyl)-N-methyl-9H-purine-9-acetamide] | 224 to 224.1 °C
Cc1noc(C)c1S(=O)(=O)Nc1ccccc1Cn1cnc2c(-c3ccco3)nc(N)nc21 [Example 239, 6-(2-Furyl)-9-(2-(3,5-dimethylisoxazol-4-ylsulphonylamino)benzyl)-9H-purine-2-amine] | 251.4 to 253.1 °C
Cn1cccc1-c1nc(N)nc2c1ncn2C(=O)NCc1ccccc1 [Example 134, 2-Amino-N-benzyl-6-(1-methyl-1H-pyrrol-2-yl)-9H-purine-9-carboxamide] | > 230 °C (dec.)
Nc1nc(-c2ccco2)c2ncn(CC(=O)N3CCCC3)c2n1 [Example 88, 6-(2-Furyl)-9-(2-oxo-2-(1-pyrrolidinyl)ethyl)-9H-purine-2-amine] | 283.6 to 283.7 °C
CN1CCN(C(=O)Cn2cnc3c(-c4ccco4)nc(N)nc32)CC1 [Example 97, 6-(2-Furyl)-9-(2-oxo-2-(4-methyl-1-piperazinyl)ethyl)-9H-purine-2-amine] | > 270 °C (dec.)
COc1ccc(NC(=O)Cn2cnc3c(-c4ccco4)nc(N)nc32)c(C)c1 [Example 169, 2-Amino-6-(2-furyl)-N-(4-methoxy-2-methylphenyl)-9H-purine-9-acetamide] | 287.1 to 288.2 °C
CCOC(=O)Cn1cnc2c(-c3ccco3)nc(-c3ccco3)nc21 [Example 72, Ethyl 2,6-bis(2-furyl)-9H-purine-9-acetate] | 314 °C
Nc1nc(-c2ccco2)c2ncn(Cc3ccc(C(=O)NCc4ccccc4)cc3)c2n1 [Example 227, 4-(2-Amino-6-(2-furyl)-9H-purine-9-ylmethyl)-N-benzylbenzamide] | 170 to 171.9 °C
Nc1nc(-c2ccco2)c2ncn(CC(=O)NCc3ccc(Cl)cc3)c2n1 [Example 144, 2-Amino-N-(4-chlorobenzyl)-6-(2-furyl)-9H-purine-9-acetamide] | 277 °C (dec.)
Nc1nc(-c2ccc(Cl)s2)c2ncn(C(=O)NCc3ccccc3)c2n1 [Example 130, 2-Amino-N-benzyl-6-(5-chloro-2-thienyl)-9H-purine-9-carboxamide] | 194 to 195 °C (dec.)
Nc1nc(-c2ccco2)c2ncn(CC(=O)NCc3ccccn3)c2n1 [Example 119, 2-Amino-6-(2-furyl)-N-(2-pyridylmethyl)-9H-purine-9-acetamide] | 238.3 to 238.4 °C
Nc1nc(-c2ccco2)c2ncn(CC(=O)NCc3ccco3)c2n1 [Example 218, 2-Amino-6-(2-furyl)-N-(2-furylmethyl)-9H-purine-9-acetamide] | 276.4 to 276.9 °C
C[Si](C)(C)CCOCn1cnc2c(-c3ccco3)nc(Cl)nc21 | 105.8 to 106.2 °C
